Emax data for one molecule are collected here from patent US10136647B2, “Synergistic Bacillus thuringiensis subsp. kurstaki and chlorantraniliprole mixtures for diamondback moth, beet armyworm, sugarcane borer, soybean looper and corn earworm control” (priority 2015, dated 2018).

Where two headings read alike, the source gives them in different places.

One experiment relates to diamondback moth larvae. The experiment in a line: Laboratory leaf dip test on diamondback moth larvae. The conditions noted are these: Plutella xylostella, foliar, 24 h after treatment, Btk 0.54 ppm, chlorantraniliprole 0.0009 ppm, read-out: % Efficacy. Type of experiment: in vivo. Here is the method:
The following examples illustrate the synergy of Bacillus thuringiensis subsp. kurstaki and chlorantraniliprole when controlling diamondback moth, beet armyworm, sugarcane borer, soybean looper, and corn earworm. DiPel® DF was used as the source of Bacillus thuringiensis subsp. kurstaki and Coragen® was used as the source of chlorantraniliprole. The present invention is not limited to the products or formulation types used herein. In each example below, the studies were conducted as follows.
For these tests, standardized laboratory leaf dip methods were used to inoculate plant material with treatment(s). Dry, treated leaves were placed into Petri dishes (100×25 mm) containing filter paper wetted with 500 μl of distilled H2O (“dH2O”). […] Synergy ratings were calculated for each test. […]
% Cexp=A+B−(AB/100), where % Cexp is the expected efficacy and “in which A and B are the control levels given by the single [insecticides]. […] Adopting a conservative approach, Applicant determined synergy to be present at ratios of >1.15. […]
In order to determine synergy, rates below normal field rate ranges must be used. If normal field rate ranges are used, all of the larvae would die (combining a lethal or near lethal dose of Bacillus thuringiensis subsp. kurstaki with a lethal dose of chlorantraniliprole would most likely lead to larvae death) in every treatment and synergy would not be able to be determined. […]

The next experiment relates to beet armyworm larvae. The experiment can be described thus: Laboratory leaf dip test on beet armyworm larvae. The format is in vivo. Particulars: Spodoptera exigua, foliar, Btk 0.54 ppm, chlorantraniliprole 0.0009 ppm, read-out: % Efficacy. Here is the method: (§1) DiPel® DF was used as the source of Bacillus thuringiensis subsp. kurstaki and Coragen® was used as the source of chlorantraniliprole. The present invention is not limited to the products or formulation types used herein. In each example below, the studies were conducted as follows.
(§2) For these tests, standardized laboratory leaf dip methods were used to inoculate plant material with treatment(s). Dry, treated leaves were placed into Petri dishes (100×25 mm) containing filter paper wetted with 500 μl of distilled H2O (“dH2O”). Each dish was then infested with between 5 and 10 larvae, dependent on species. Efficacy ratings were taken at specified intervals. Synergy ratings were calculated for each test.
(§3) % Cexp=A+B−(AB/100), where % Cexp is the expected efficacy and “in which A and B are the control levels given by the single [insecticides]. If the ratio between the experimentally observed efficacy of the mixture Cobs and the expected efficacy of the mixture is greater than 1, synergistic interactions are present in the mixture.” (Gisi, Synergisitic Interaction of Fungicides in Mixtures, The American Phytopathological Society, 86:11, 1273-1279,1996). Adopting a conservative approach, Applicant determined synergy to be present at ratios of >1.15.

The next experiment has as its system cabbage looper larvae. The experiment in a line: Laboratory leaf dip test on cabbage looper larvae. Type of experiment: in vivo. The conditions noted are these: Trichoplusia ni, foliar, Btk 0.54 ppm, chlorantraniliprole 0.0009 ppm, read-out: % Efficacy. As for the experimental part:
as §1, §2, §3

Another experiment deals with sugarcane borer larvae. The experiment in a line: Laboratory leaf dip test on sugarcane borer larvae. The format is in vivo. The conditions noted are these: Diatraea saccharalis, foliar, Btk 0.54 ppm, chlorantraniliprole 0.0009 ppm, read-out: % Efficacy. As for the experimental part: as §1, §2, §3
Experiment [1] deals with southwestern corn borer larvae. The experiment in a line: Laboratory leaf dip test on southwestern corn borer larvae. Type of experiment: in vivo. Particulars: foliar, 72 h after treatment, Btk 0.54 ppm, chlorantraniliprole 0.0009 ppm, read-out: % Efficacy. As for the experimental part: as §1, §2, §3
The subject of another experiment is soybean looper larvae. The experiment in a line: Laboratory leaf dip test on soybean looper larvae. Type of experiment: in vivo, Chrysodeixis includens. The conditions noted are these: foliar, Btk 0.54 ppm, chlorantraniliprole 0.045 μg/ml, read-out: % Efficacy. As for the experimental part: as §1, §2, §3
In this study, the response of soybean looper larvae to Bacillus thuringiensis subsp. kurstaki and chlorantraniliprole was observed.
For this species, the same ppm of Bacillus thuringiensis subsp. kurstaki was used, but 0.045 μg/ml was used for chlorantraniliprole.

The next experiment relates to corn earworm larvae. The experiment can be described thus: Laboratory leaf dip test on corn earworm larvae. Type of experiment: in vivo. The conditions noted are these: Helicoverpa zea, foliar, Btk 0.54 ppm, chlorantraniliprole 0.0009 ppm, read-out: % Efficacy. Here is the method:
as §1, §2, §3

On to `CNC(=O)c1cc(Cl)cc(C)c1NC(=O)c1cc(Br)nn1-c1ncccc1Cl` [Chlorantraniliprole], for which the Emax at 0.0009 ppm stood at 12% in the experiment with diamondback moth larvae; 7% with beet armyworm larvae (24 h after treatment); 17% with beet armyworm larvae (48 h after treatment); 30% in the experiment on beet armyworm larvae (72 h after treatment); 46% in the experiment with cabbage looper larvae (24 h after treatment); 46% in the experiment on cabbage looper larvae (48 h after treatment). The Emax at 0.0009 ppm worked out at 10% in the experiment on sugarcane borer larvae (24 h after treatment); 10% with sugarcane borer larvae (48 h after treatment); 19% with sugarcane borer larvae (72 h after treatment); 31% in experiment [1]; 7% in the experiment with corn earworm larvae (24 h after treatment); 20% in the experiment with corn earworm larvae (48 h after treatment). The Emax at 0.0009 ppm in the experiment on corn earworm larvae (72 h after treatment) came out at 20%. Moreover, the results for the Emax at 0.045 µg/mL in the experiment with soybean looper larvae (24 h after treatment), in the experiment with soybean looper larvae (48 h after treatment) and in the experiment with soybean looper larvae (72 h after treatment) were 7%, 10% and 17%, respectively.
